Laboratory results as given in PubChem BioAssay AID274 (DTP/NCI, 2004).
Where “and” joins values, the source holds several entries; their conditions need not be identical. Equal entries are not always repeated. Inconclusive results and toxic doses are left out. The calls were made as follows: active = survival T/C of 150% or more; inactive = T/C below 125% in these data.

Test system: BDF1 mice, Lewis lung carcinoma iv, survival T/C
Assay: NCI In Vivo Anticancer Drug Screen. Data for tumor model Lewis Lung Carcinoma (intravenous) in B6D2F1 (BDF1) mice
Conditions: endpoint: median survival time, schedule: Q01DX009 (ip), higher = longer survival
Procedure: The antitumor activity of compounds was measured in mice bearing transplantable tumors. Survival or tumor size were measured and the results are expressed as the measurement made in the treated group (T) divided by the measurement made in the vehicle treated control group (C). The tumor model used in this assay is Lewis Lung Carcinoma (intravenous) in B6D2F1 (BDF1) mice

[1] = dose: 12.5 mg/kg/injection, vehicle: saline with Tween-80
[2] = dose: 25.0 mg/kg/injection, vehicle: saline with Tween-80
[3] = dose: 50.0 mg/kg/injection, vehicle: saline with Tween-80
[4] = dose: 100.0 mg/kg/injection, vehicle: saline with Tween-80
[5] = dose: 200.0 mg/kg/injection, vehicle: saline with Tween-80
[6] = dose: 400.0 mg/kg/injection, vehicle: saline with Tween-80
[7] = dose: 12.5 mg/kg/injection, vehicle: saline
[8] = dose: 25.0 mg/kg/injection, vehicle: saline
[9] = dose: 50.0 mg/kg/injection, vehicle: saline
[10] = dose: 100.0 mg/kg/injection, vehicle: saline

Measured: T/C

C[C@]12CC[C@@H]3c4ccc(OC(=O)Cc5ccc(N(CCCl)CCCl)cc5)cc4CC[C@H]3[C@@H]1CC[C@@H]2OC(=O)Cc1ccc(N(CCCl)CCCl)cc1
inactive: [1] 97 % of control | [2] 104 % of control | [3] 99 % of control | [4] 91 % of control | [5] 98 % of control | [6] 100 % of control

COC(=O)Nc1cccc(-c2nc3ccc(NC(=O)OC)cc3c(=O)n2-c2ccccc2)c1
inactive: dose: 8.0 mg/kg/injection, vehicle: Klucel (hydroxypropylcellulose) (HPC) 95 % of control | dose: 8.0 mg/kg/injection, vehicle: saline 92 % of control | dose: 16.0 mg/kg/injection, vehicle: Klucel (hydroxypropylcellulose) (HPC) 92 % of control | dose: 16.0 mg/kg/injection, vehicle: saline 97 % of control | dose: 32.0 mg/kg/injection, vehicle: Klucel (hydroxypropylcellulose) (HPC) 99 % of control | dose: 32.0 mg/kg/injection, vehicle: saline 109 % of control | dose: 64.0 mg/kg/injection, vehicle: Klucel (hydroxypropylcellulose) (HPC) 109 % of control | dose: 64.0 mg/kg/injection, vehicle: saline 108 % of control | dose: 128.0 mg/kg/injection, vehicle: saline 115 % of control

O=C(NO)c1ccc(O)c(O)c1
inactive: dose: 25.0 mg/kg/injection, vehicle: water 100 % of control | dose: 50.0 mg/kg/injection, vehicle: water 100 % of control | dose: 100.0 mg/kg/injection, vehicle: water 100 % of control | dose: 200.0 mg/kg/injection, vehicle: water 108 % of control | dose: 300.0 mg/kg/injection, vehicle: suspension in saline 117 % of control | dose: 400.0 mg/kg/injection, vehicle: suspension in saline 114 % of control | dose: 500.0 mg/kg/injection, vehicle: suspension in saline 122 % of control

O=C(CCl)N1c2ccccc2Oc2cc3ccccc3cc21
inactive: [4] 107 % of control | [5] 116 % of control | [6] 111 % of control

COC(C(=O)C(O)C(C)O)C1CC2C=C3C=C(OC4CC(OC5CC(O)C(OC)C(C)O5)C(OC(C)=O)C(C)O4)C(C)C(=O)C3=C(O)C2=C(O)C1OC1CC(OC2CC(OC3CC(C)(O)C(O)C(C)O3)C(O)C(C)O2)C(O)C(C)O1 (stereo not given)
inactive: dose: 0.06 mg/kg/injection, vehicle: saline with Tween-80 96 % of control | dose: 0.13 mg/kg/injection, vehicle: saline with Tween-80 101 % of control | dose: 0.25 mg/kg/injection, vehicle: saline with Tween-80 114 % of control | dose: 0.5 mg/kg/injection, vehicle: saline with Tween-80 104 % of control | dose: 1.0 mg/kg/injection, vehicle: saline with Tween-80 101 % of control | dose: 2.0 mg/kg/injection, vehicle: saline with Tween-80 92 % of control

CCC1CN2C(=N1)c1ccccc1-c1cc(Cl)ccc12 (stereo not given)
inactive: dose: 3.13 mg/kg/injection, vehicle: saline with Tween-80 104 % of control and 118 % of control | dose: 6.25 mg/kg/injection, vehicle: saline with Tween-80 109 % of control and 90 % of control | [1] 100 % of control | [2] 94 % of control and 107 % of control | [3] 102 % of control and 122 % of control

O=c1[nH]c(=O)c2nc(-c3cccnc3)cnc2[nH]1
inactive: [7] 102 % of control | [8] 101 % of control | [9] 108 % of control | [10] 100 % of control | dose: 200.0 mg/kg/injection, vehicle: saline 111 % of control | dose: 400.0 mg/kg/injection, vehicle: saline 111 % of control

COC1/C=C/C=C(/C)Cc2cc(O)c(Cl)c(c2)N(C)C(=O)CC(OC(=O)C(C)C)C2(C)OC2C(C)C2CC1(O)NC(=O)O2 (stereo not given)
inactive: dose: 0.12 mg/kg/injection, vehicle: saline + alcohol 106 % of control | dose: 0.25 mg/kg/injection, vehicle: saline + alcohol 110 % of control | dose: 0.5 mg/kg/injection, vehicle: saline + alcohol 105 % of control | dose: 1.0 mg/kg/injection, vehicle: saline + alcohol 105 % of control

CC(C)([NH-])CO.CC(C)([NH-])CO.[Cl][Cd][Cl]
inactive: dose: 0.63 mg/kg/injection, vehicle: saline with Tween-80 97 % of control | dose: 1.25 mg/kg/injection, vehicle: saline with Tween-80 88 % of control | dose: 2.5 mg/kg/injection, vehicle: saline with Tween-80 99 % of control

CC12CC(C(=O)O)C3(O)CC(C)(C1)CC(C)(C2)C3 (stereo not given) (tested in a mixture with another compound)
inactive: [1] 99 % of control | [2] 86 % of control | [3] 89 % of control | [4] 94 % of control | [5] 99 % of control

C=C(C)[C@@H]1CCc2c(O)c(O)c(=O)cc(C)c2C1
inactive: dose: 3.12 mg/kg/injection, vehicle: saline 111 % of control | dose: 6.25 mg/kg/injection, vehicle: saline 106 % of control | [7] 96 % of control | [8] 101 % of control | [9] 102 % of control | [10] 101 % of control

Nc1ncnc2c1ncn2C1C=C(CO)C(O)C1O (stereo not given)
inactive: dose: 0.5 mg/kg/injection, vehicle: saline 102 % of control | dose: 1.0 mg/kg/injection, vehicle: saline 98 % of control | dose: 2.0 mg/kg/injection, vehicle: saline 88 % of control | dose: 4.0 mg/kg/injection, vehicle: saline 95 % of control

Clc1ccc2nnnn2n1
inactive: [1] 102 % of control | [2] 115 % of control | [3] 104 % of control | [4] 98 % of control | [5] 108 % of control

NC(=S)n1cccn1
inactive: [3] 99 % of control | [4] 94 % of control | [5] 103 % of control

C[C@H](N)C(=O)N[C@@H]1[C@H]2C(=C(O)C[C@@H](O)[C@@H]2O)C(=O)O[C@]1(C)C(Cl)Cl
inactive: dose: 0.38 mg/kg/injection, vehicle: Klucel (hydroxypropylcellulose) (HPC) 101 % of control | dose: 0.75 mg/kg/injection, vehicle: Klucel (hydroxypropylcellulose) (HPC) 102 % of control | dose: 1.5 mg/kg/injection, vehicle: Klucel (hydroxypropylcellulose) (HPC) 108 % of control

COc1ccc2[nH]c3c(c2c1)CCNC3CC(C)CCC=C(C)C (stereo not given)
inactive: dose: 6.25 mg/kg/injection, vehicle: Klucel (hydroxypropylcellulose) (HPC) 116 % of control | dose: 12.5 mg/kg/injection, vehicle: Klucel (hydroxypropylcellulose) (HPC) 98 % of control | dose: 25.0 mg/kg/injection, vehicle: Klucel (hydroxypropylcellulose) (HPC) 102 % of control | dose: 50.0 mg/kg/injection, vehicle: Klucel (hydroxypropylcellulose) (HPC) 95 % of control | dose: 100.0 mg/kg/injection, vehicle: Klucel (hydroxypropylcellulose) (HPC) 107 % of control
